# Measurements published in patent publication US8222282B2, “Sulfonate salts of 2-amino-3-carbethoxyamino-6-(4-fluoro-benzylamino)-pyridine” (Teva Pharmaceuticals USA, Inc., priority 2008, dated 2012).
# Experiments:
# Assay type in all cases: physicochemical
# [1] = Oxidative stability: HPLC of flupirtine salts after storage at room temperature under open air; details: for decrease of area under the peak of the flupirtine signal: 0 to 14 days, room temperature, open air; for Flupirtine signal after 14 days (area under the peak in, %): HPLC after 14 days of storage at room temperature under open air; for Flupirtine signal after 0 days (area under the peak in, %): HPLC after isolation and drying
# Procedure: HPLC Method [table] HPLC analysis was performed after isolation and drying of flupirtine maleate form A and flupirtine sulfonate salts and repeated after 14 days of storage at room temperature under open air.
# [2] = Solubility in demineralised water (photometric); details: 60 min stirring at 20° C.; for solubility thermodynamic at 60 min: demineralised water
# Procedure: […] Subsequently, an aliquot of the solution was centrifuged at 10,000 rpm and the flupirtine absorption was photometrically determined in the supernatant. The amount of flupirtine in solution was calculated with a response factor (absorption/mg substance).
# [3] = Bulk density of flupirtine salts; details: volume per 100.0 g of sample material
# Procedure: The bulk density was determined as follows: Without increasing its density, sample material (about 4 grams) was introduced into a 10 ml measuring cylinder (±0.2 ml). The volume and the exact weight of the introduced sample material were determined. The bulk density was calculated as volume per 100.0 g of sample material.
# [4] = Oxidative stability: HPLC of flupirtine salts after storage at room temperature under open air; details: exposed to air, 30 days at room temperature; in contrast to maleate, gluconate or inorganic salts
# [5] = Discolouration measurements, optical comparison with RAL scale of colours; details: 60° C. and 70° C., alone and in mixture with MCC, lactose or DiCaPhos, dry and 100% rh
# Procedure: Discolouration was measured using optical comparison with a standard: the RAL scale of colours (see list). The colour changes during the experiment were compared to this standard list and the appropriate value was noted. The intensity was increasing on a scale ranging from 1 to 10.
# A higher number means more discolouration. The increase in colour intensity is not proportional but qualitative.
# The colouration of flupirtine maleate and flupirtine mesilate has been observed at 60° C. and at 70° C. with the substance alone and in mixture with micro crystalline cellulose (MCC), with lactose or with dicalcium phosphate DiCaPhos (CaHPO4). The tests were performed under dry and neat conditions. Neat refers to saturated with moisture, i.e., 100% relative humidity (rh). […] Only with lactose moisture had to be avoided for the mesilate.
decrease of area under the peak of the flupirtine signal [1],"Flupirtine signal after 14 days (area under the peak in, %) [1]","Flupirtine signal after 0 days (area under the peak in, %) [1]",Solubility [2],Bulk density ([3]; listed as Maleate Form A),solubility thermodynamic at 60 min [2],Bulk density [3],stability towards oxidation and towards discolouration [4],discolouration compared to maleate [5],Structure (SMILES)
3.11%,96.18%,99.27%,1.6 mg/100 ml water,686 ml/100 g substance,,,,,"CCOC(=O)Nc1ccc(NCc2ccc(F)cc2)nc1N.O=C(O)/C=C\C(=O)O [Flupirtine maleate A, reference compound]"
,96.81%,97.69%,,,52 µg/mL,478 ml/100 g substance,substantially improved stability,equal or less discolouration,"CCOC(=O)Nc1ccc(NCc2ccc(F)cc2)nc1N.CS(=O)(=O)O [Flupirtine mesilate, 2-amino-3-carbethoxyamino-6-(4-fluoro-benzylamino)-pyridine Mesilate]"
,,,,,,1634 ml/100 g substance,,,"CCOC(=O)Nc1ccc(NCc2ccc(F)cc2)nc1N.O=C(O)/C=C\C(=O)O [Maleate Form B, reference compound]"
,,,,,,420 ml/100 g substance,,,"CCOC(=O)Nc1ccc(NCc2ccc(F)cc2)nc1N.Cc1ccc(S(=O)(=O)O)cc1 [Flupirtine tosilate, 2-amino-3-carbethoxyamino-6-(4-fluoro-benzylamino)-pyridine Tosilate]"
less than 0.1%,96.87%,96.93%,,,32 µg/mL,358 ml/100 g substance,substantially improved stability,,"CCOC(=O)Nc1ccc(NCc2ccc(F)cc2)nc1N.O=S(=O)(O)c1ccccc1 [Flupirtine besilate, 2-amino-3-carbethoxyamino-6-(4-fluoro-benzylamino)-pyridine Besilate]"
